29 compounds from patent EP3153515A1, “COMPOUNDS FOR INHIBITING HEPATITIS C VIRUS, PHARMACEUTICAL COMPOSITIONS AND USES THEREOF” (priority 2014, dated 2015) can be followed below.

The first assay concerns HCV NS5A replicon GT-1a. The assay can be described thus: HCV NS5A replicon anti-viral activity (EC50), dual-reporter Renilla luciferase, GT-1a. As to conditions: Hepatitis C virus, GT1A; GT-1a replicon; read-out: NS5A Inhibitory Activity (EC50 of GT-1a subtype inhibition). It is filed as cell-based. An excerpt: The autonomous replication level of HCV in liver cells in vitro is very low, and the only animal that can be infected by HCV is chimpanzee, therefore there is no appropriate animal model currently available for preclinical pharmacodynamic study. Some researchers have transplanted human liver tissue infected with HCV in vitro into immune deficient mice to establish an in vivo mice model, but these mice are hard to raise and the model is unstable and short of normal immunologic reaction. Moreover, the model has significant difference with the pathogenic process of hepatitis C, therefore, it has not been used for animal model to assess the action of anti-HCV medicine yet. The progress of the development of anti-viral drugs for the treatment of HCV infection had been very slow because the pathogenic mechanism and life cycle of HCV were unclear before 1999 due to the lack of cell culture system for effective multiplication of HCV. But researchers managed to achieve a breakthrough in 1999 after numerous attempts. An effective cell culture model-replicon system in which HCV is capable of autonomous replication in transfected human hepatic carcinoma cell line Huh-7 had been established in that year on the basis of subgenomic HCV RNA built with genetic engineering.
The above-mentioned cell culture model-replicon system which has been widely accepted in the industry is used in this invention for ex vivo experiments and subsequent assessment of drugs based on the experiment results.
The therapeutic effect of the compounds of this invention on HCV infection can be preliminarily assessed through the following preclinical in vitro inhibitory action test and can be further confirmed in clinical trials. Other methods used in the invention are also quite familiar to professionals in this field with ordinary technical knowledge. Method for testing the anti-viral activity(EC50) in HCV NS5A replicon system: • The viral replication level in infected cells was determined by testing Renilla luciferase with the newly established dual-reporter gene replicon system. There was a good linear relation between the expression level of the reporter gene and the HCV RNA replication level and viral protein expression level. The anti-viral activity was determined for 3 replicates in 3 replicate cells at five(5) 1:2 diluted concentration gradients, with 1 to 2 positive controls. The EC50 of the compounds was calculated in the end.
The compounds of the invention, or their stereoisomers, tautomers, esterified or amidated prodrugs, or pharmaceutically acceptable salts and mixtures have been subjected to test to determined their therapeutic effects in the treatment of HCV infection. […] Moreover, the results of 6a-6ep(Ia), 6fa-6gq(Ib) and reference compounds Ref-1(BMS-790052), Ref-2(GS5885), Ref-3 in HCV-NS5 inhibition test reveal that the cyclopentanyl/hexamethyleneamino radical containing linear polypeptide compounds 6a-6ep, 6fa-6gq and reference compounds Ref-1, Ref-2, Ref-3 have good HCV inhibitory results. […] The replicons GT-1a, GT-lb, GT-2a, GT-3a, GT-4a, GT-5a and GT-6a used for the test are routine replicons commercially available in this field. Table 1: HCV NS5A replicon inhibitory activity test results of compounds (6a-6gq) of the invention
(In antiviral work, replicon cells carry a viral genome segment that copies itself.)
With `CNC(=O)N[C@@H](C(=O)N1CCC[C@H]1c1ncc(-c2ccc(-c3ccc(-c4cnc([C@@H]5C=CCN5C(=O)[C@@H](NC(=O)OC)C(C)C)[nH]4)cc3)cc2)[nH]1)c1ccccc1` [6dg], the EC50 lay within 0.001 to 0.999 nM. The same measure, in the same setting: as for `COC(=O)N[C@H](C(=O)N1CCC[C@H]1c1ncc(-c2ccc(-c3ccc(-c4cnc([C@@H]5C=CCN5C(=O)[C@@H](NC(=O)OC)C5CCCC5)[nH]4)cc3)cc2)[nH]1)C(C)C` [6dh], the figure is 0.001 to 0.999 nM; as for `COC(=O)N[C@H](C(=O)N1CCC[C@H]1c1ncc(-c2ccc(-c3ccc(-c4cnc([C@@H]5C=CCN5C(=O)[C@@H](NC(=O)OC)C5CCCCC5)[nH]4)cc3)cc2)[nH]1)C(C)C` [6di], 0.001 to 0.999 nM.

On to `COC(=O)N[C@H](C(=O)N1CC=C[C@H]1c1ncc(-c2ccc(-c3ccc(-c4cnc([C@@H]5CC(O)CN5C(=O)[C@@H](NC(=O)OC)C(C)C)[nH]4)cc3)cc2)[nH]1)C(C)C` (some centres unmarked) [6dq], for which the EC50 fell in the range of 0.001 to 0.999 nM. On the same count and under the same terms, as for `COC(=O)N[C@H](C(=O)N1CCC[C@H]1c1nc(-c2ccc(-c3ccc(-c4cnc([C@@H]5CC6(CN5C(=O)[C@@H](NC(=O)OC)C(C)C)OCCO6)[nH]4)cc3)cc2)c[nH]1)C(C)C` [6ds], the figure is 0.001 to 0.999 nM. On to `COC(=O)N[C@H](C(=O)N1CC=C[C@H]1c1ncc(-c2ccc(-c3ccc4[nH]c([C@@H]5CC6(CC6)CN5C(=O)[C@@H](NC(=O)OC)C(C)C)nc4c3)cc2)[nH]1)C(C)C` [6eb], for which the concentration for a half-maximal effect (EC50) was 0.001 to 0.999 nM. Same read-out and setting: as for `COC(=O)N[C@H](C(=O)N1CN(C(=O)N2Cc3ccc4c(c3C2)OCO4)C[C@H]1c1ncc(-c2ccc(-c3cccc4c(-c5cnc([C@@H]6CCCN6C(=O)[C@@H](NC(=O)OC)C(C)C)[nH]5)cccc34)cc2)[nH]1)C(C)C` [6ee], the figure is 0.001 to 0.999 nM; as for `COC(=O)N[C@H](C(=O)N1CC=C[C@H]1c1ncc(-c2ccc(-c3cccc4c(-c5cnc([C@@H]6CCCN6C(=O)[C@@H](NC(=O)OC)C(C)C)[nH]5)cccc34)cc2)[nH]1)C(C)C` [6ef], 0.001 to 0.999 nM; as for `COC(=O)N[C@H](C(=O)N1CC=C[C@H]1c1ncc(-c2cccc3c(-c4ccc(-c5cnc([C@@H]6CCCN6C(=O)[C@@H](NC(=O)OC)C(C)C)[nH]5)cc4)cccc23)[nH]1)C(C)C` [6eg], 0.001 to 0.999 nM. Same read-out and setting: the figure for `COC(=O)N[C@H](C(=O)N1CC=C[C@H]1c1ncc(-c2ccc3c(c2)OC(c2ccccc2)n2c-3cc3cc(-c4cnc([C@@H]5CCCN5C(=O)[C@@H](NC(=O)OC)C(C)C)[nH]4)ccc32)[nH]1)C(C)C` (some centres unmarked) [6ej] is 0.001 to 0.999 nM; for `COC(=O)N[C@H](C(=O)N1CC=C[C@H]1c1nc2ccc(-c3ccc(-c4ccc5nc([C@@H]6CCCN6C(=O)[C@@H](NC(=O)OC)C(C)C)[nH]c5c4)c4c3CC3(CCCCC3)C4)cc2[nH]1)C(C)C` [6en] it is 1 to 49.9 nM. Same read-out and setting: as for `COC(=O)N[C@H](C(=O)N1CCC[C@H]1c1nc2ccc(-c3ccc(-c4ccc5nc([C@@H]6C=CCN6C(=O)[C@H](NC(=O)OC)c6ccccc6)[nH]c5c4)c4c3CC3(CCCCC3)C4)cc2[nH]1)C(C)C` [6ep], the figure is 1 to 49.9 nM.

For `COC(=O)N[C@H](C(=O)N1CC=C[C@H]1c1ncc(-c2ccc(-c3csc4c(-c5c[nH]c([C@@H]6CCCN6C(=O)[C@@H](NC(=O)OC)C(C)C)n5)csc34)cc2)[nH]1)C(C)C` [6fj], the EC50 is 0.001 to 0.999 nM. `COC(=O)N[C@H](C(=O)N1CCC[C@H]1c1nc(-c2csc3c(-c4ccc(-c5cnc([C@@H]6C=CCN6C(=O)[C@H](NC(=O)OC)c6ccccc6)[nH]5)cc4)csc23)c[nH]1)C(C)C` [6fk]: the half-maximal effective concentration (EC50) lay in the range of 0.001 to 0.999 nM.

For `COC(=O)N[C@H](C(=O)N1CCC[C@H]1c1ncc(-c2cc3oc(-c4ccc(-c5cnc([C@@H]6C=CCN6C(=O)[C@H](NC(=O)OC)c6ccccc6)[nH]5)cc4)cc3s2)[nH]1)C(C)C` [6fp], the concentration for a half-maximal effect (EC50) fell in the range of 0.001 to 0.999 nM. Still for that read-out and setting: the figure for `COC(=O)N[C@H](C(=O)N1CC=C[C@H]1c1ncc(-c2ccc(-c3cc4sc(-c5cnc([C@@H]6CCCN6C(=O)[C@H](NC(=O)OC)c6ccccc6)[nH]5)cc4o3)cc2)[nH]1)C(C)C` [6fq] is 0.001 to 0.999 nM. In the case of `COC(=O)N[C@@H](C(=O)N1CC=C[C@H]1c1ncc(-c2ccc(-c3cc4sc(-c5cnc([C@@H]6CCCN6C(=O)[C@H](NC(=O)OC)c6ccccc6)[nH]5)cc4o3)cc2)[nH]1)c1ccccc1` [6fr], the EC50 lay within 0.001 to 0.999 nM. As to `COC(=O)N[C@H](C(=O)N1CC=C[C@H]1c1nc(-c2csc3c(-c4ccc(-c5cnc([C@@H]6CCCN6C(=O)[C@H](NC(=O)OC)c6ccccc6)[nH]5)cc4)csc23)c[nH]1)C(C)C` [6ft], the half-maximal effective concentration (EC50) was 0.001 to 0.999 nM. Same read-out and setting: as for `COC(=O)N[C@H](C(=O)N1CCC[C@H]1c1nc2ccc(-c3csc4c(-c5ccc(-c6cnc([C@@H]7C=CCN7C(=O)[C@H](NC(=O)OC)c7ccccc7)[nH]6)c(F)c5)csc34)cc2[nH]1)C(C)C` [6fu], the figure is 0.001 to 0.999 nM; as for `COC(=O)N[C@H](C(=O)N1CCC[C@H]1c1nc2ccc(-c3csc4c(-c5ccc(-c6cnc([C@@H]7C=CCN7C(=O)[C@H](NC(=O)OC)c7ccc(C)cc7)[nH]6)cc5)csc34)cc2[nH]1)C(C)C` [6fw], 0.001 to 0.999 nM; as for `COC(=O)N[C@H](C(=O)N1CC=C[C@H]1c1nc2ccc(-c3csc4c(-c5ccc(-c6cnc([C@@H]7CCCN7C(=O)[C@H](NC(=O)OC)c7ccccc7)[nH]6)cc5)csc34)cc2[nH]1)C(C)C` [6fy], 0.001 to 0.999 nM. The same measure, in the same setting: as for `COC(=O)N[C@H](C(=O)N1CC=C[C@H]1c1nc2ccc(-c3csc4c(-c5ccc(-c6cnc([C@@H]7CCCN7C(=O)[C@@H](NC(=O)OC)C(C)C)[nH]6)cc5)csc34)cc2[nH]1)C(C)C` [6fz], the figure is 0.001 to 0.999 nM; as for `COC(=O)N[C@H](C(=O)N1CCC[C@H]1c1ncc(-c2ccc(-c3csc4c(-c5ccc6nc([C@@H]7C=CCN7C(=O)[C@H](NC(=O)OC)c7ccccc7)[nH]c6c5)csc34)cc2)[nH]1)C(C)C` [6ga], 0.001 to 0.999 nM. On the same count and under the same terms, as for `COC(=O)N[C@H](C(=O)N1CC=C[C@H]1c1nc2ccc(-c3cc4sc(-c5cnc([C@@H]6CCCN6C(=O)[C@@H](NC(=O)OC)C(C)C)[nH]5)cc4s3)cc2[nH]1)C(C)C` [6gh], the figure is 0.001 to 0.999 nM; as for `COC(=O)N[C@H](C(=O)N1CCC[C@H]1c1ncc(-c2csc3c(-c4ccc5nc([C@@H]6C=CCN6C(=O)[C@H](NC(=O)OC)c6ccccc6)[nH]c5c4)csc23)[nH]1)C(C)C` [6gj], 0.001 to 0.999 nM. Take `COC(=O)N[C@@H](C(=O)N1CC=C[C@H]1c1nc2ccc(-c3csc4c(-c5cnc([C@@H]6CCCN6C(=O)[C@H](NC(=O)OC)c6ccccc6)[nH]5)csc34)cc2[nH]1)c1ccccc1` [6gk]: the EC50 is 0.001 to 0.999 nM. The same measure, in the same setting: the figure for `COC(=O)N[C@H](C(=O)N1CC=C[C@H]1c1nc2ccc(-c3csc4c(-c5cnc([C@@H]6CCCN6C(=O)[C@@H](NC(=O)OC)C(C)C)[nH]5)csc34)cc2[nH]1)C(C)C` [6gm] is 0.001 to 0.999 nM; for `COC(=O)N[C@H](C(=O)N1CC=C[C@H]1c1nc2ccc(-c3csc4c(-c5cnc([C@@H]6CCCN6C(=O)[C@H](NC(=O)OC)c6ccccc6)[nH]5)csc34)cc2[nH]1)C(C)C` [6gn] it is 0.001 to 0.999 nM.

Staying with this assay, now noted: Hepatitis C virus, genotype 1a / genotype 6a, read-out: Inhibitory activity against various HCV-NS5A subtypes(EC50, GT-1a to GT-6a) GT-1a.
Take `COC(=O)N[C@H](C(=O)N1CC=C[C@H]1c1nc2ccc(-c3csc4c(-c5ccc(-c6cnc([C@@H]7CCCN7C(=O)[C@@H](NC(=O)OC)C(C)C)[nH]6)cc5)csc34)cc2[nH]1)C(C)C` [6fz]: the concentration giving a half-maximal response (EC50) was 0.007 nM. On the same count and under the same terms, as for `COC(=O)N[C@H](C(=O)N1CC=C[C@H]1c1ncc(-c2ccc(-c3csc4c(-c5ccc6nc([C@@H]7CCCN7C(=O)[C@@H](NC(=O)OC)C(C)C)[nH]c6c5)csc34)cc2)[nH]1)C(C)C` [6gd], the figure is 0.004 nM.

The assay is the same for the next values; noted with them: comparison drawn from Table 2.
On to `COC(=O)N[C@H](C(=O)N1CC=C[C@H]1c1nc2ccc(-c3csc4c(-c5ccc(-c6cnc([C@@H]7CCCN7C(=O)[C@@H](NC(=O)OC)C(C)C)[nH]6)cc5)csc34)cc2[nH]1)C(C)C` [6fz], for which the “inhibitory activity compared with Ref-1(BMS-790052), Ref-2(GS5885), Ref-3 and Ref-4 (in words)” value was “significantly superior”. Still for that read-out and setting: as for `COC(=O)N[C@H](C(=O)N1CC=C[C@H]1c1ncc(-c2ccc(-c3csc4c(-c5ccc6nc([C@@H]7CCCN7C(=O)[C@@H](NC(=O)OC)C(C)C)[nH]c6c5)csc34)cc2)[nH]1)C(C)C` [6gd], the entry is “significantly superior”.

As usually defined, the EC50 is the concentration that produces a half-maximal response.
